Measurements: the kinase profiling compilation of Christmann-Franck et al. (2016)
Each block holds one compound with its values, some of them ahead of it.

What was measured:
[1] = target: EIF2AK3 (human) (UniProt Q9NZJ5); assay: IMAP-FP
[2] = target: PKN1 (human) (UniProt Q16512); assay: IMAP-FP
[3] = target: SRPK1 (human) (UniProt Q96SB4); assay: IMAP-FP
[4] = target: ABL2 (human) (UniProt P42684); assay: Caliper, Mobility shift assay off-chip
[5] = target: AKT3 (human) (UniProt Q9Y243); assay: Caliper, Mobility shift assay off-chip
[6] = target: ALK NPM1 (human) (UniProt P06748+Q9UM73); assay: Caliper, Mobility shift assay off-chip
ALK NPM1 (human), sequence (P06748 whole entry, looked up): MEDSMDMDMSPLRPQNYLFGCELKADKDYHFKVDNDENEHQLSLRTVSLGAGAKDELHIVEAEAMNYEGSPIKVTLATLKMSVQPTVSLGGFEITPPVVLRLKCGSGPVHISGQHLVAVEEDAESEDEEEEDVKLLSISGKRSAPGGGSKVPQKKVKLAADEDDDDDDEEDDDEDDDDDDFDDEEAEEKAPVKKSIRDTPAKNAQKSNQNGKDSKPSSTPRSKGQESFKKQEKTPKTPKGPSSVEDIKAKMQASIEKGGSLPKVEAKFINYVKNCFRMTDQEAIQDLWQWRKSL
ALK NPM1 (human), sequence (Q9UM73 whole entry, looked up): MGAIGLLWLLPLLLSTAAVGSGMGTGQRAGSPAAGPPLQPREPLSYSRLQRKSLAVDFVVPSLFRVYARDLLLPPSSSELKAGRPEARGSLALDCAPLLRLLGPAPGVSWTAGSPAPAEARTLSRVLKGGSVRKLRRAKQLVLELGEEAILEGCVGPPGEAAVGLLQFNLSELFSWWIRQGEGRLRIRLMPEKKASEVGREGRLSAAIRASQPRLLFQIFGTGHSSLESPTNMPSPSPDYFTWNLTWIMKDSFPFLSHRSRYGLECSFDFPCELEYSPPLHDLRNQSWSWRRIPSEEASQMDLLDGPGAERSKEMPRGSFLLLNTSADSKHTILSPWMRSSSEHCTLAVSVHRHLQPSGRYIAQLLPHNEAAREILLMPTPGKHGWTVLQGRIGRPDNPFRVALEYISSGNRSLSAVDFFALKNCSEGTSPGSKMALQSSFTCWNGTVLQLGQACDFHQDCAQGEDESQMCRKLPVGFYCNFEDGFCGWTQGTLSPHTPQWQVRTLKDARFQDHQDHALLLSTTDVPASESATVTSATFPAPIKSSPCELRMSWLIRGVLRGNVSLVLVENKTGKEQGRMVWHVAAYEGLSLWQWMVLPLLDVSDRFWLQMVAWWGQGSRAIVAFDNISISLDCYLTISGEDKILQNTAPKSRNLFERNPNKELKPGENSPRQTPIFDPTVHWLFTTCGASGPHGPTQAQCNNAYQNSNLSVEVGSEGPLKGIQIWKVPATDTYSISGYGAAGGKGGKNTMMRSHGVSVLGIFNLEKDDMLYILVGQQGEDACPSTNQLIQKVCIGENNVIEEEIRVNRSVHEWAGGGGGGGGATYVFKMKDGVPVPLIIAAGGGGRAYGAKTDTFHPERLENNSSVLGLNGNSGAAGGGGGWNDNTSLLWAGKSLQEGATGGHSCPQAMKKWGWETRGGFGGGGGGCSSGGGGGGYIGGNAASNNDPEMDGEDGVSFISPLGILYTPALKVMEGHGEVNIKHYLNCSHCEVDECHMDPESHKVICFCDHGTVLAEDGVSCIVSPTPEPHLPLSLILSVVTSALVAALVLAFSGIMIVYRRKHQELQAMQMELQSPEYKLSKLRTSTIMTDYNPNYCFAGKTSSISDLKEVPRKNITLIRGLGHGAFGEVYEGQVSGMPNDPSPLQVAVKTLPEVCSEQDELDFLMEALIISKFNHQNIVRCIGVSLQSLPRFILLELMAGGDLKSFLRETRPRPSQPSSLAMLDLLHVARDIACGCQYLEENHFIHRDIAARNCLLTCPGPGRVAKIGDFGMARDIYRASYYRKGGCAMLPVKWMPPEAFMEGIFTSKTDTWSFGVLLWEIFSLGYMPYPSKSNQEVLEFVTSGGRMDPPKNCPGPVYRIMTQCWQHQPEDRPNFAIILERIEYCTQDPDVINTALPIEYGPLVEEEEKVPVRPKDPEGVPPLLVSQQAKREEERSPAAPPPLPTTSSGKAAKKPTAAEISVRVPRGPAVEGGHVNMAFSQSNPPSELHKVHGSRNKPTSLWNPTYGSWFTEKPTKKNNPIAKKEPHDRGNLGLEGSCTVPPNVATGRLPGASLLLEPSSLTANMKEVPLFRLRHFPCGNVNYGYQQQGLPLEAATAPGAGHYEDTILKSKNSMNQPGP

[7] = target: BLK (human) (UniProt P51451); assay: Caliper, Mobility shift assay off-chip
[8] = target: CAMK1D (human) (UniProt Q8IU85); assay: Caliper, Mobility shift assay off-chip
[9] = target: CAMK2A (human) (UniProt Q9UQM7); assay: Caliper, Mobility shift assay off-chip
[10] = target: CHUK (human) (UniProt O15111); assay: Caliper, Mobility shift assay off-chip
[11] = target: DDR2 (human) (UniProt Q16832); assay: Caliper, Mobility shift assay off-chip
[12] = target: EEF2K (human) (UniProt O00418); assay: Caliper, Mobility shift assay off-chip
[13] = target: EPHA1 (human) (UniProt P21709); assay: Caliper, Mobility shift assay off-chip
[14] = target: IRAK4 (human) (UniProt Q9NWZ3); assay: Caliper, Mobility shift assay off-chip
[15] = target: LTK (human) (UniProt P29376); assay: Caliper, Mobility shift assay off-chip
[16] = target: MARK3 (human) (UniProt P27448); assay: Caliper, Mobility shift assay off-chip
[17] = target: PDGFRA (human) (UniProt P16234); assay: Caliper, Mobility shift assay off-chip
PDGFRA (human), sequence (P16234 whole entry, looked up): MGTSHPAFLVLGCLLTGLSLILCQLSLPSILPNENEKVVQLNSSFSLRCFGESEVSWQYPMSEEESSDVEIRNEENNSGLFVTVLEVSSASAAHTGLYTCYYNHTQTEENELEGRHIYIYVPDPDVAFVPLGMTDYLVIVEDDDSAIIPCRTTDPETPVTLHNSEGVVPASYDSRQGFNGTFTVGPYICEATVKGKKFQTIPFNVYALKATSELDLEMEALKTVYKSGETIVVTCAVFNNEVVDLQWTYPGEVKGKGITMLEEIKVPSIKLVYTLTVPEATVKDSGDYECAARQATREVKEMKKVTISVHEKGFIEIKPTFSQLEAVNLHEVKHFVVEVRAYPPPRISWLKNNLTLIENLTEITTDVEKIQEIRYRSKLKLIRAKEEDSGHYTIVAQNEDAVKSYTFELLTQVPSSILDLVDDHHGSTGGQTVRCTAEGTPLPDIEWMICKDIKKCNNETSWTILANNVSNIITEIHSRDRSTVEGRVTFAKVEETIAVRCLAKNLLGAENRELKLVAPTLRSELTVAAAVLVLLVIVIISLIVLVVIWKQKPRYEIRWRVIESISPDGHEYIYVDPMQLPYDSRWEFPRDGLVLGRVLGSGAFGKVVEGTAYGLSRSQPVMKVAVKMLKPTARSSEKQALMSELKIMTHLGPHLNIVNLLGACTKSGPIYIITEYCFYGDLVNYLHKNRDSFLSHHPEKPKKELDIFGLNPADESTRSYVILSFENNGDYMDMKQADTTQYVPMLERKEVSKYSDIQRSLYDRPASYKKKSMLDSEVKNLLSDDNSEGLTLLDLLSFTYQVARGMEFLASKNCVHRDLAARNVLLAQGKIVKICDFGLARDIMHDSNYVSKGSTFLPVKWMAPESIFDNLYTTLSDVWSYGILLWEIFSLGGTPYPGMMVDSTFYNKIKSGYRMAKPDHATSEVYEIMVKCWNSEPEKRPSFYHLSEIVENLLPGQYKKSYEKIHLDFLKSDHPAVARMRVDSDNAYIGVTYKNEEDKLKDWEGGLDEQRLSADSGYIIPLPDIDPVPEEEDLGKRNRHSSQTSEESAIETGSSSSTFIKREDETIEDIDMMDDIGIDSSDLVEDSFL

[18] = target: PRKAA1 (human) (UniProt Q13131); assay: Caliper, Mobility shift assay off-chip
[19] = target: PRKACB (human) (UniProt P22694); assay: Caliper, Mobility shift assay off-chip
[20] = target: PRKCD (human) (UniProt Q05655); assay: Caliper, Mobility shift assay off-chip
[21] = target: PRKCE (human) (UniProt Q02156); assay: Caliper, Mobility shift assay off-chip
[22] = target: PRKCI (human) (UniProt P41743); assay: Caliper, Mobility shift assay off-chip
[23] = target: RET (human) (UniProt P07949); assay: Caliper, Mobility shift assay off-chip
[24] = target: RPS6KA6 KD1 KD2 (human) (UniProt Q9UK32); assay: Caliper, Mobility shift assay off-chip
[25] = target: SRMS (human) (UniProt Q9H3Y6); assay: Caliper, Mobility shift assay off-chip
[26] = target: SRPK3 (human) (UniProt Q9UPE1); assay: Caliper, Mobility shift assay off-chip
SRPK3 (human), sequence (Q9UPE1 whole entry, looked up): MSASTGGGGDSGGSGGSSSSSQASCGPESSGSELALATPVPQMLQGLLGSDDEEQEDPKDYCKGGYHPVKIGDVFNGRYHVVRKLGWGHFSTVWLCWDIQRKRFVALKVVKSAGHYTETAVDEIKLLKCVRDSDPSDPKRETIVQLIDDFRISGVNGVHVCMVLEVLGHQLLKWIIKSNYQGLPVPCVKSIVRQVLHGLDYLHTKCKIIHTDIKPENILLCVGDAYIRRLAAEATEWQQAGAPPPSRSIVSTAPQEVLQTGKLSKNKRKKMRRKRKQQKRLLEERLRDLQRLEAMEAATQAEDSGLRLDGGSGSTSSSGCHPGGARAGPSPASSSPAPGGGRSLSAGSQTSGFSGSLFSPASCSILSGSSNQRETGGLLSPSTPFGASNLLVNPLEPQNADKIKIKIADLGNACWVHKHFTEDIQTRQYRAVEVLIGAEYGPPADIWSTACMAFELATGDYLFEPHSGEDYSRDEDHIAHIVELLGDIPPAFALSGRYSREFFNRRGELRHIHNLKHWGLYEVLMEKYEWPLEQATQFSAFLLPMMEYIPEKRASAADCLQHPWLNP

[27] = target: STK4 (human) (UniProt Q13043); assay: Caliper, Mobility shift assay off-chip
[28] = target: TEK (human) (UniProt Q02763); assay: Caliper, Mobility shift assay off-chip
TEK (human), sequence (Q02763 whole entry, looked up): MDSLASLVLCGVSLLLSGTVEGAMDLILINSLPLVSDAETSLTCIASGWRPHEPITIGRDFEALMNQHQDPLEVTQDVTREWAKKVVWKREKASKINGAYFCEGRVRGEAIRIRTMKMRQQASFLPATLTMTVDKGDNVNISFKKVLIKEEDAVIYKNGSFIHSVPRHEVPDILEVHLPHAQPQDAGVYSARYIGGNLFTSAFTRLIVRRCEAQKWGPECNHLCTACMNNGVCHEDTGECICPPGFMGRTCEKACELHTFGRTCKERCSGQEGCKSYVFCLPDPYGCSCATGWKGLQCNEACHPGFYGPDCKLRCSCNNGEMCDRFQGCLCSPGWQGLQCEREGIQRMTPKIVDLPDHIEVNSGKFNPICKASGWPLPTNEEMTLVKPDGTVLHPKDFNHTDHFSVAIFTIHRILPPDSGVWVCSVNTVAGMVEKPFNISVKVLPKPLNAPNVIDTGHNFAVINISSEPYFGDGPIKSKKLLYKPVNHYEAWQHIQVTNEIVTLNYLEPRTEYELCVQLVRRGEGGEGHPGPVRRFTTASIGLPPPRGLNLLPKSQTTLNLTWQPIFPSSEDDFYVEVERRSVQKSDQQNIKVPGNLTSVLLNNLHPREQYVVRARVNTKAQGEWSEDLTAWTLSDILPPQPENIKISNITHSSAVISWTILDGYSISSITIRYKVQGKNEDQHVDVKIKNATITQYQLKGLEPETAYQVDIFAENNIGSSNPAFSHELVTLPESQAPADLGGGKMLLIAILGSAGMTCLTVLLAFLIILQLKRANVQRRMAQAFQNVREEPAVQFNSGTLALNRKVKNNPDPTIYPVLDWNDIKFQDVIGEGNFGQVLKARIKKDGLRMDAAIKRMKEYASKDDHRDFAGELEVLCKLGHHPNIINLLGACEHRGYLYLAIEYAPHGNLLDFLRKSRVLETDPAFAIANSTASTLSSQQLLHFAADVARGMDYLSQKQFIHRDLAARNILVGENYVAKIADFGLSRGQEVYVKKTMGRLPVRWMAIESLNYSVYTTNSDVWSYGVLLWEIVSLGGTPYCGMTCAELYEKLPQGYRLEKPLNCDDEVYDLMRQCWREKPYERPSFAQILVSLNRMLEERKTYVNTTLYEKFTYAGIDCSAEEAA

[29] = target: TSSK3 (human) (UniProt Q96PN8); assay: Caliper, Mobility shift assay off-chip
TSSK3 (human), sequence (Q96PN8 whole entry, looked up): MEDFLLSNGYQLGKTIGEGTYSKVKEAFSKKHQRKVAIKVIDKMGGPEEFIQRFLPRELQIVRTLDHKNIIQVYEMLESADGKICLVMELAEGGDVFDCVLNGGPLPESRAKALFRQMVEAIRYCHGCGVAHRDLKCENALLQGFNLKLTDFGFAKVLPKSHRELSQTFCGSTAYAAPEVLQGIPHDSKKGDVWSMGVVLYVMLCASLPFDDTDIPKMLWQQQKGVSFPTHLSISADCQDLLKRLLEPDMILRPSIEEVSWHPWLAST

[30] = target: TYRO3 (human) (UniProt Q06418); assay: Caliper, Mobility shift assay off-chip
[31] = target: WNK1 (human) (UniProt Q9H4A3); assay: Caliper, Mobility shift assay off-chip
[32] = target: EIF2AK2 (human) (UniProt P19525); assay: IMAP-FP
[33] = target: DYRK1A (human) (UniProt Q13627); assay: Caliper, Mobility shift assay off-chip
[34] = target: FYN (human) (UniProt P06241); assay: Caliper, Mobility shift assay off-chip

- inhibition ([1]; compound 0.02 µM): -15%
- inhibition ([1]; compound 0.2 µM): -17%
- inhibition ([2]; compound 0.02 µM): -20.5%
- inhibition ([2]; compound 0.2 µM): -27.6%
- inhibition ([3]; compound 0.02 µM): -6.8%
- inhibition ([3]; compound 0.2 µM): -3.6%
- inhibition ([4]; compound 0.02 µM): 2.6%
- inhibition ([4]; compound 0.2 µM): 27.6%
- inhibition ([5]; compound 0.02 µM): -3.2%
- inhibition ([5]; compound 0.2 µM): -2.6%
- inhibition ([6]; compound 0.02 µM): 2.8%
- inhibition ([6]; compound 0.2 µM): 2.1%
- inhibition ([7]; compound 0.02 µM): 7.7%
- inhibition ([7]; compound 0.2 µM): 22.7%
- inhibition ([8]; compound 0.02 µM): -0.2%
- inhibition ([8]; compound 0.2 µM): 2.9%
- inhibition ([9]; compound 0.02 µM): 5.3%
- inhibition ([9]; compound 0.2 µM): 5.1%
- inhibition ([10]; compound 0.02 µM): -1.2%
- inhibition ([10]; compound 0.2 µM): 0.9%
- inhibition ([11]; compound 0.02 µM): 34.2%
- inhibition ([11]; compound 0.2 µM): 85%
- inhibition ([12]; compound 0.02 µM): 2.9%
- inhibition ([12]; compound 0.2 µM): 4.7%
- inhibition ([13]; compound 0.02 µM): -1.3%
- inhibition ([13]; compound 0.2 µM): 15.3%
- inhibition ([14]; compound 0.02 µM): -4.3%
- inhibition ([14]; compound 0.2 µM): -3.9%
- inhibition ([15]; compound 0.02 µM): 5.1%
- inhibition ([15]; compound 0.2 µM): 11.9%
- inhibition ([16]; compound 0.02 µM): 1.7%
- inhibition ([16]; compound 0.2 µM): -3.6%
- inhibition ([17]; compound 0.02 µM): 65.6%
- inhibition ([17]; compound 0.2 µM): 95.6%
- inhibition ([18]; compound 0.02 µM): 8%
- inhibition ([18]; compound 0.2 µM): -10.1%
- inhibition ([19]; compound 0.02 µM): -1.5%
- inhibition ([19]; compound 0.2 µM): -7.3%
- inhibition ([20]; compound 0.02 µM): -1.6%
- inhibition ([20]; compound 0.2 µM): -4.4%
- inhibition ([21]; compound 0.02 µM): 5.8%
- inhibition ([21]; compound 0.2 µM): -8.2%
- inhibition ([22]; compound 0.02 µM): 3.4%
- inhibition ([22]; compound 0.2 µM): 2.1%
- inhibition ([23]; compound 0.02 µM): 32.3%
- inhibition ([23]; compound 0.2 µM): 82.1%
- inhibition ([24]; compound 0.02 µM): 1.2%
- inhibition ([24]; compound 0.2 µM): 1.7%
- inhibition ([25]; compound 0.02 µM): 1.1%
- inhibition ([25]; compound 0.2 µM): 25.2%
- inhibition ([26]; compound 0.02 µM): -1.1%
- inhibition ([26]; compound 0.2 µM): 2.1%
- inhibition ([27]; compound 0.02 µM): -4.7%
- inhibition ([27]; compound 0.2 µM): -5.1%
- inhibition ([28]; compound 0.02 µM): -4.6%
- inhibition ([28]; compound 0.2 µM): 2.7%
- inhibition ([29]; compound 0.02 µM): 2.2%
- inhibition ([29]; compound 0.2 µM): 6.7%
- inhibition ([30]; compound 0.02 µM): 2.3%
- inhibition ([30]; compound 0.2 µM): 10.6%
- inhibition ([31]; compound 0.02 µM): 1.6%
- inhibition ([31]; compound 0.2 µM): 5.1%
Structure (SMILES): Cc1ccc(Nc2nccc(N(C)c3ccc4c(C)n(C)nc4c3)n2)cc1S(N)(=O)=O

- inhibition ([32]; compound 0.001 µM): -26.3%
- inhibition ([32]; compound 0.02 µM): -20.8%
- inhibition ([1]; compound 0.001 µM): -16.9%
- inhibition ([1]; compound 0.02 µM): -10.8%
- inhibition ([2]; compound 0.001 µM): -26.9%
- inhibition ([2]; compound 0.02 µM): -21.6%
- inhibition ([3]; compound 0.001 µM): -6.9%
- inhibition ([3]; compound 0.02 µM): -5.3%
- inhibition ([4]; compound 0.001 µM): 5.8%
- inhibition ([4]; compound 0.02 µM): 58.4%
- inhibition ([5]; compound 0.001 µM): -5.4%
- inhibition ([5]; compound 0.02 µM): -5.5%
- inhibition ([6]; compound 0.001 µM): 1.1%
- inhibition ([6]; compound 0.02 µM): -0.3%
- inhibition ([7]; compound 0.001 µM): 0.4%
- inhibition ([7]; compound 0.02 µM): -1.6%
- inhibition ([8]; compound 0.001 µM): -0.4%
- inhibition ([8]; compound 0.02 µM): -0.8%
- inhibition ([9]; compound 0.001 µM): 3.7%
- inhibition ([9]; compound 0.02 µM): 3.2%
- inhibition ([10]; compound 0.001 µM): -2.6%
- inhibition ([10]; compound 0.02 µM): 2.6%
- inhibition ([11]; compound 0.001 µM): -1.6%
- inhibition ([11]; compound 0.02 µM): 2.2%
- inhibition ([33]; compound 0.001 µM): 8%
- inhibition ([33]; compound 0.02 µM): -5.5%
- inhibition ([12]; compound 0.001 µM): -4.8%
- inhibition ([12]; compound 0.02 µM): 2.3%
- inhibition ([13]; compound 0.001 µM): -5.6%
- inhibition ([13]; compound 0.02 µM): -4.2%
- inhibition ([34]; compound 0.001 µM): 7.3%
- inhibition ([34]; compound 0.02 µM): 6.1%
- inhibition ([14]; compound 0.001 µM): -5.7%
- inhibition ([14]; compound 0.02 µM): -6.7%
- inhibition ([15]; compound 0.001 µM): 2.1%
- inhibition ([15]; compound 0.02 µM): 0.9%
- inhibition ([16]; compound 0.001 µM): -1%
- inhibition ([17]; compound 0.001 µM): 33.1%
- inhibition ([18]; compound 0.001 µM): 7.1%
- inhibition ([18]; compound 0.02 µM): 10.1%
- inhibition ([19]; compound 0.001 µM): -7.3%
- inhibition ([19]; compound 0.02 µM): -10.6%
- inhibition ([20]; compound 0.001 µM): 15.6%
- inhibition ([20]; compound 0.02 µM): -0.9%
- inhibition ([21]; compound 0.001 µM): 4.4%
- inhibition ([21]; compound 0.02 µM): -4.2%
- inhibition ([22]; compound 0.001 µM): 3%
- inhibition ([22]; compound 0.02 µM): 3.9%
- inhibition ([24]; compound 0.001 µM): -7%
- inhibition ([24]; compound 0.02 µM): -0.1%
- inhibition ([25]; compound 0.001 µM): -4.5%
- inhibition ([25]; compound 0.02 µM): -4.9%
- inhibition ([26]; compound 0.001 µM): -3.3%
- inhibition ([26]; compound 0.02 µM): -0.9%
- inhibition ([27]; compound 0.001 µM): -5.9%
- inhibition ([27]; compound 0.02 µM): 2%
- inhibition ([28]; compound 0.001 µM): -9%
- inhibition ([28]; compound 0.02 µM): -4.9%
- inhibition ([29]; compound 0.001 µM): -1.6%
- inhibition ([29]; compound 0.02 µM): 0%
- inhibition ([30]; compound 0.001 µM): -1.2%
- inhibition ([30]; compound 0.02 µM): -2%
- inhibition ([31]; compound 0.001 µM): 4.1%
- inhibition ([31]; compound 0.02 µM): 2.1%
Structure (SMILES): CNC(=O)c1ccccc1Sc1ccc2c(/C=C/c3ccccn3)n[nH]c2c1
